How the values were obtained:
Type in all cases: in vivo
[1] = Carbonation effect of structural analogs in lime-flavored carbonated water, trained panel
Description: Selected structural analogs of sitosterol were tested for their ability to enhance the carbonation effect of a carbonated beverage. The analogs were used in amounts of 400 ppb and 200 ppb to 5 ppm. The sensory evaluation was carried by a trained panel that tasted each of the compounds in a lime-flavored carbonated water (Vintage seltzer water). The intensity of carbonation effect was rated and compared to other samples (Table 3)

[2] = Carbonation effect intensity in carbonated water (7.2 g/L CO2), panel, scale 0 to 10; details: 2.5 ppt in solution of 7.2 g/L CO2; scale 0 to 10 (0=none, 4=medium, 7=high, 10=extremely high); control 4.88 ± 2.53
Description: (§1) Carbonated water containing carbon dioxide at 6.0, 7.2 and 8.0 g/L, respectively, were also prepared.
A β-sitosterol solution (prepared in Example 1) was added to the carbonated water (7.2 g/L CO2) (prepared in Example 1) to yield a final concentration of 2.5 ppt. The carbonation effect of the obtained sample was evaluated and compared by a panel with the carbonated water using an intensity scale of 0 to 10, where 0=none, 4=medium, 7=high and 10=extremely high. The intensity of carbonation effect was rated. Mean (“Carbonation Intensity”) and standard error of the mean (“SE”, ±) were obtained (Table 2).

[3] = Alcohol impression in alcohol-free beer, panel comparison with alcohol solutions; details: 25 ppb in Brahma 0.0% alcohol-free beer
Description: Alcohol solutions at 1% ABV, 2% ABV, 2.5% ABV, 3% ABV and 5% ABV were prepared by adding varying amounts of ethanol in Brahma 0.0% alcohol-free beer (Anheuser-Busch InBev);
A β-sitosterol solution (prepared in Example 1) was added in Brahma 0.0% alcohol-free beer to yield a final concentration of 25 ppb. The alcohol impression of the obtained sample was evaluated and compared by a panel with alcohol solutions at 1% ABV, 2% ABV, 2.5% ABV, 3% ABV and 5% ABV (prepared in Example 1). β-Sitosterol (25 ppb) provided an equal level of alcohol impression as the alcohol solution at 2.5% ABV. Accordingly, β-Sitosterol provided alcohol sensation in alcohol-free beverages.

[4] = Flavor of β-sitosterol solutions in water; details: solutions 2.5 to 600 ppb in water
[5] = Carbonation sensation with varying amounts of β-sitosterol in carbonated water (7.2 g/L CO2)
Description: as §1
A series of β-sitosterol solutions (prepared in Example 1) were added to carbonated water (7.2 g/L CO2) (prepared in Example 1) to yield final concentrations ranging from 0.1 ppt to 50 ppt. The carbonation sensation of the obtained samples containing different amounts of β-sitosterol was evaluated.

[6] = Carbonation sensation with varying amounts of carbonation; details: 2.5 ppt in carbonated water containing 6.0, 7.2 or 8.0 g/L CO2, all samples
Description: as §1
A β-sitosterol solution (prepared in Example 1) was added to carbonated water containing 6.0, 7.2 or 8.0 g/L CO2 (prepared in Example 1), respectively, to yield a final concentration of 2.5 ppt β-sitosterol. The carbonation sensation of the obtained samples was evaluated.

[7] = Alcohol sensation with varying amounts of alcohol, panel comparison with solutions at higher ABV
Description: (§2) Alcohol solutions with ABV ranging from 8.75% to […] were prepared by diluting CAPTAIN MORGAN® Original Spiced Rum (35% ABV) (Diageo North America Inc.) in varying amounts of water.
A β-sitosterol solution (prepared in Example 1) was added to alcohol solutions at 8.75% ABV, 17.5% ABV and 21.75% ABV (prepared in Example 1), respectively, to yield a final concentration of 25 ppb β-sitosterol. The alcohol sensation of the obtained samples was evaluated and compared by a panel with alcohol solutions at higher levels of ABV.

[8] = Alcohol sensation intensity in alcohol solution at 6% ABV, panel, scale 0 to 10; details: 100 ppb in solution of 6% ABV; scale 0 to 10 (0=none, 4=medium, 7=high, 10=extremely high); control 4.38 ± 0.32
Description: Alcohol solution at 6% ABV was prepared by adding ethanol in water; and
A β-sitosterol solution (prepared in Example 1) was added to the alcohol solution at 6% ABV (prepared in Example 1) to yield a final concentration of 100 ppb. The alcohol sensation of the obtained sample was evaluated and compared by a panel with the alcohol solution at 6% ABV using an intensity scale of 0 to 10, where 0=none, 4=medium, 7=high and 10=extremely high. The intensity of alcohol sensation was rated. Mean (“Alcohol Intensity”) and standard error of the mean (“SE”, ±) were obtained (Table 1).

[9] = Alcohol sensation with varying amounts of β-sitosterol in alcohol solution at 17.5% ABV
Description: as §2
A series of β-sitosterol solutions (prepared in Example 1) were added to the alcohol solution at 17.5% ABV (prepared in Example 1) to yield final concentrations of β-sitosterol ranging from 3 to 500 ppb. The alcohol sensation of the obtained samples containing different amounts of β-sitosterol was evaluated.

[10] = 200 ppb in lime-flavored carbonated water (Vintage seltzer water)
[11] = 200 ppb-5 ppm in lime-flavored carbonated water (Vintage seltzer water)

C[C@H](CCC(=O)NCC(=O)O)[C@H]1CC[C@H]2[C@@H]3[C@H](O)C[C@@H]4C[C@H](O)CC[C@]4(C)[C@H]3C[C@H](O)[C@]12C [Glycocholic acid hydrate]
Carbonation Effect [1, 10]: 200 ppb: Longer lasting bubbles than control,

C[C@H](CCC(=O)O)[C@H]1CC[C@H]2[C@@H]3[C@H](O)C[C@@H]4C[C@H](O)CC[C@]4(C)[C@H]3C[C@H](O)[C@]12C [Cholic acid]
Carbonation Effect [1, 10]: 200 ppb: More tingly bubbles on tongue, linger, | Carbonation Effect ([1]; 400 ppb in lime-flavored carbonated water (Vintage seltzer water)): 400 ppb: Very foamy, foam builds, lingering

C[C@H](CCC(=O)NCCS(=O)(=O)[O-])[C@H]1CC[C@H]2[C@@H]3[C@@H](O)C[C@@H]4C[C@H](O)CC[C@]4(C)[C@H]3CC[C@]12C.[Na+] [Sodium tauroursodeoxycholate]
Carbonation Effect [1, 10]: 200 ppb: Very impactful, numbing, slightly more

CC[C@H](/C=C/[C@@H](C)[C@H]1CC[C@H]2[C@@H]3CC=C4C[C@@H](O)CC[C@]4(C)[C@H]3CC[C@]12C)C(C)C [Stigmasterol]
Carbonation Effect [1, 11]: 200 pb-5 ppm: 5 ppm is a good level, adds more

C=C(C)[C@@H]1CC[C@]2(CO)CC[C@]3(C)[C@H](CC[C@@H]4[C@@]5(C)CC[C@H](O)C(C)(C)[C@@H]5CC[C@]43C)[C@@H]12 [Betulin]
Carbonation Effect [1, 10]: 200 ppb: Long lasting popping, sour, works with

CC[C@H](CC[C@@H](C)[C@H]1CC[C@H]2[C@@H]3CC=C4C[C@@H](O)CC[C@]4(C)[C@H]3CC[C@]12C)C(C)C [β-sitosterol, (3S,8S,9S,10R,13R,14S,17R)-17-((1R,4R)-4-ethyl-1,5-dimethyl-hexyl)-10,13-dimethyl-2,3,4,7,8,9,10,11,12,13,14,15,16,17-tetradecahydro-1H-cyclopenta[a]phenanthren-3-ol]
Mean Carbonation Intensity ± SE [2]: 7.19 ± 1.73 | Alcohol impression, equal level as alcohol solution at [3]: 2.5 % ABV | Flavor of the compound itself [4]: no noticeable flavor itself | Carbonation perception ([5]; 0.1 ppt in carbonated water (7.2 g/L CO2)): slight increase in carbonation perception | Carbonation perception ([5]; 2.5 ppt in carbonated water (7.2 g/L CO2)): clear increase in carbonation perception | Enhancement of carbonation effect ([5]; 5 ppt or higher in carbonated water (7.2 g/L CO2)): reached a stable plateau | Carbonation sensation [6]: provided enhancement of carbonation sensation | Alcohol sensation at the level of an alcohol solution at ([7]; 25 ppb in alcohol solution at 8.75% ABV): 10 % ABV | Alcohol sensation at the level of an alcohol solution at ([7]; 25 ppb in alcohol solution at 17.5% ABV): 22.5 % ABV | Alcohol sensation at the level of an alcohol solution at ([7]; 25 ppb in alcohol solution at 21.75% ABV): 35 % ABV | Mean Alcohol Intensity ± SE [8]: 7.21 ± 0.27 | Alcohol sensation ([9]; 3 ppb in alcohol solution at 17.5% ABV): slight but noticeable increase in alcohol sensation | Enhancement of alcohol sensation ([9]; 200 ppb in alcohol solution at 17.5% ABV): reached a stable plateau | Alcohol sensation ([9]; higher concentrations (above 3 ppb, up to 500 ppb) in alcohol solution at 17.5% ABV): clear increase in alcohol intensity

C[C@H](CCC(=O)O)[C@H]1CC[C@H]2[C@@H]3[C@H](O)C[C@@H]4C[C@H](O)CC[C@]4(C)[C@H]3CC[C@]12C [Chenodeoxycholic acid]
Carbonation Effect [1, 11]: 200 ppb-5 ppm: Adds more violent upfront

C[C@@H]1CC[C@@]2(OC1)O[C@H]1C[C@H]3[C@@H]4CC=C5C[C@@H](O)CC[C@]5(C)[C@H]4CC[C@]3(C)[C@H]1[C@@H]2C [Diosgenin]
Carbonation Effect [1, 11]: 200 ppb-5 ppm: Not much effect on carbonation,

CC[C@H](CC[C@@H](C)[C@H]1CC[C@H]2[C@@H]3CC=C4C[C@@H](O[C@@H]5O[C@H](CO)[C@@H](O)[C@H](O)[C@H]5O)CC[C@]4(C)[C@H]3CC[C@]12C)C(C)C [β-Sitosterol β-D-glucoside, Daucosterol, β-Sitosterol β-D-glucoside]
Carbonation Effect [1, 11]: 200 ppb-5 ppm: Slight tingly tip of tongue,

CC(C)CCC[C@@H](C)[C@H]1CC[C@H]2[C@@H]3CC=C4C[C@@H](O)CC[C@]4(C)[C@H]3CC[C@]12C [Cholesterol]
Carbonation Effect [1, 11]: 200 ppb-5 ppm: Very similar to Deoxycholic

CC(C)(O)[C@@H]1CC[C@](C)([C@H]2[C@@H](O)C[C@@]3(C)[C@@H]4C[C@H](O[C@@H]5O[C@H](CO)[C@@H](O)[C@H](O)[C@H]5O)[C@H]5C(C)(C)[C@@H](O[C@@H]6OC[C@@H](O)[C@H](O)[C@H]6O)CC[C@@]56C[C@@]46CC[C@]23C)O1 [Astragaloside IV]
Carbonation Effect [1, 10]: 200 ppb: More impactful, long lasting, very

C[C@H](CCC(=O)O)[C@H]1CC[C@H]2[C@@H]3C[C@H](O)[C@@H]4C[C@H](O)CC[C@]4(C)[C@H]3CC[C@]12C [Hyodeoxycholic acid]
Carbonation Effect [1, 10]: 200 ppb: Very foamy, fast bubbles upfront,
